# Measurements published in patent US20250025438A1, “Derivative of aspartic acid and use thereof in treatment of metabolic diseases such as hepatic fibrosis and non-alcoholic hepatitis” (SHENZHEN JINGTAI TECHNOLOGY CO., LTD., priority 2021, published 2025).
# Where a name gives a salt, the structure may show the parent alone. Where a SMILES comes first, the peptide text is derived from it.
# What was measured:
# Assay type in all cases: cell-based
# COL1A1 = test: In vitro efficacy in semi-activated LX2 cells, qPCR: COL1A1; settings: Homo sapiens, 48 hours, Q-PCR, read-out: COL1A1 mRNA inhibition rate; for inhibition at 25 µM: LX-2, test concentration 25 μM; for inhibition at 50 µM: LX-2, 50 µM
# TNF-α [1] = test: In vitro efficacy in semi-activated LX2 cells, qPCR: TNF-α; settings: Homo sapiens, 48 hours, Q-PCR, read-out: TNF-α mRNA inhibition rate
# COL3A1 = test: In vitro efficacy in semi-activated LX2 cells, qPCR: COL3A1; settings: Homo sapiens, 48 hours, Q-PCR, read-out: COL3A1 mRNA inhibition rate; for inhibition at 25 µM: LX-2, test concentration 25 μM; for inhibition at 50 µM: LX-2, 50 µM
# Smad3 = test: In vitro efficacy in semi-activated LX2 cells, qPCR: Smad3; settings: Homo sapiens, 48 hours, Q-PCR, read-out: Smad3 mRNA inhibition rate
# Procedure, shortened: (§1)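 LX2 cells, adhered 12 h, then exposed to test compound at 50 µM for 48 h. Total RNA extracted, reverse-transcribed and measured by SYBR Green qPCR. Relative mRNA expression by the comparative (relative quantification) method.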
# COL1A2 [2] = test: In vitro efficacy in semi-activated LX2 cells, qPCR: COL1A2; settings: Homo sapiens, 48 hours, Q-PCR, read-out: COL1A2 mRNA inhibition rate; for inhibition at 25 µM: LX-2, test concentration 25 μM
# IL-1β = test: In vitro efficacy in semi-activated LX2 cells, qPCR: IL-1β; settings: Homo sapiens, 48 hours, Q-PCR, read-out: IL-1β mRNA inhibition rate; for inhibition at 25 µM: LX-2, test concentration 25 μM
# α-SMA [3] = test: In vitro efficacy in semi-activated LX2 cells, qPCR: α-SMA; settings: test concentration 25 μM, 48 hours, Q-PCR, read-out: α-SMA mRNA inhibition rate
# Procedure, shortened: as §1
# [4] = system: liver fibrosis-related genes; test: Semi-activated LX2 cells, qPCR: liver fibrosis-related genes overall; settings: 48 hours, Q-PCR, Table 2
# Protocol: (§2) Test compounds were added to the LX-2 cells respectively, and total RNA in the cells was extracted 48 hours later. This experiment was performed strictly in accordance with the instructions of the Total RNA Kit. The steps were as follows (note: this experiment was performed on ice throughout the entire process, and special RNase-free tips were used throughout the entire process): • 1) The 12-well cell culture plate was taken out from the incubator, the cell culture medium was discarded, the cells were washed twice with 1 mL of 1×PBS, and a negative pressure suction device was used to fully remove PBS; • 2) 350 μL of TRK Lysis Buffer mixture/well was prepared as needed (mixture preparation method: 1 mL of TRKLysis Buffer+20 μL of β-mercaptoethanol), vortexed and mixed well. 350 μL was added to each well of the 12-well cell culture plate, and allowed to stand at room temperature for 5 minutes to fully lyse the cells; • 3) 70% ethanol/well was prepared as needed, vortexed and mixed well. 350 μL was added to each well of the 12-well cell culture plate, mixed well by shaking, and transferred to the spin column (spin column+collection tube were assembled); • 4) Centrifugation was performed at 4° C., 12000 g for 60 sec. The waste liquid was discarded after centrifugation, while the spin column was kept; • 5) 500 μL of RNA Wash Buffer I was added, centrifuged at 4° C., 12000 g for 60 sec, the waste liquid was discarded after centrifugation, and the collection column was kept; • 6) 500 μL of RNA Wash Buffer II (confirmed that ethanol had been added) was added, centrifuged at 4° C., 12000 g for 60 sec, the waste liquid was discarded after centrifugation, and the collection column was kept; • 7) step 6) was repeated once again, centrifugation was performed at 4° C., 12000 g for 90 sec, the waste liquid was discarded after centrifugation, and the collection column was kept; • 8) Centrifugation was performed at 4° C., 12000 g for 120 sec to ensure that the spin column was fully dried; • 9) The dried spin column was inserted into a new 1.5 mL EP tube, and 30 μL of DEPC water was added to the membrane in the center of the spin column. It should be careful not to touch the EP tube cover in this step. It was allowed to stand at room temperature for 5 minutes to ensure that the RNA was fully dissolved in DEPC water. Centrifugation was performed at 4° C., 12000 g for 60 sec, and the EP tube was kept; • 10) NanoDrop ultra-micro-volume spectrophotometer was used to detect RNA concentration;
# (§3) 5.3 Q-PCR detection of target gene expression: According to the instructions of Power SYBR® Green PCR Master Mix, the specific operations were as follows:
# (§4) LX2 cells were passaged and plated normally. After adherent growth for 12 hours, 50 µM of the test compound was added. After 48 hours, the cells were collected, total RNA was extracted, and Q-PCR was used to detect the changes in the mRNA expression levels of liver fibrosis-related genes (ACTA2 encoding α-SMA, COL1A1 and COLIA2 encoding collagen I, COL3A1 encoding collagen III, SMAD3 encoding Smad3) and inflammation-related genes (IL1β encoding IL-1β, TNFα encoding TNFα) (for specific methods, see 5. Q-PCR detection of target gene expression as described above). α-SMA was a marker of hepatic stellate cell activation, and collagen I and collagen III were the main components of extracellular matrix deposition.
# α-SMA [5] = test: Semi-activated LX2 cells, Western blot: α-SMA protein; settings: 50-400 μM, 48 hours, FIG. 2, vs 50 μM aspartic acid
# [6] = system: collagen I and collagen III; test: Semi-activated LX2 cells, qPCR: collagen I and collagen III at the mRNA level; settings: 48 hours, Q-PCR, Table 2
# Procedure, shortened: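 LX-2 human hepatic stellate cells, adhered 12 h, were treated with 50 µM test compound for 48 h. Total RNA was extracted, and COL1A1, COL1A2 and COL3A1 mRNA were measured by SYBR Green qPCR.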
# TNF-α [7] = test: In vitro efficacy in semi-activated LX2 cells, qPCR: TNF-α; settings: Homo sapiens, LX-2, 48 hours, Q-PCR, read-out: TNF-α mRNA inhibition rate
# Protocol: as §2
# (§5) 5.2 Reverse transcription of RNA into cDNA: According to the instructions of PrimeScript™ RT reagent Kit (Perfect Real Time), the specific experimental steps were as follows:
# as §3
# (§6) After the reaction was completed, the amplification curve and dissolution curve of Q-PCR were confirmed, and the relative quantification method ([…]) was used to perform data analysis on the experimental results.
# as §4
# FN = test: Semi-activated LX2 cells, Western blot: FN protein; settings: 50-400 μM, 48 hours, FIG. 3, vs 50 μM aspartic acid
# COL1A2 [8] = test: In vitro efficacy in semi-activated LX2 cells, qPCR: COL1A2; settings: Homo sapiens, LX-2, 48 hours, Q-PCR, read-out: COL1A2 mRNA inhibition rate
# Protocol: as §2, §5, §3, §6, §4
# NS3TP1 = test: Regulation of NS3TP1 in semi-activated LX2 cells, qPCR; settings: LX-2 cells, 48 hours, Q-PCR, vs control group
# Protocol: as §2, §5, §3, §6
# LX2 cells were passaged and plated normally. […] After 48 hours, the cells were collected, total RNA was extracted, and the expression of NS3TP1 gene was detected using Q-PCR method.
# α-SMA [9] = test: Activated LX2 cells (TGFβ1), Western blot: α-SMA; settings: LX2 cells stimulated with TGFβ1 (5 ng/mL), 24 hours, FIG. 4
# collagen I = test: Activated LX2 cells (TGFβ1), Western blot: Collagen I; settings: LX2 cells stimulated with TGFβ1 (5 ng/mL), 24 hours, FIG. 4
# [10] = LX-2, test concentration 12.5 μM
smiles,measurement,setting,value
CN[C@@H](CC(=O)O)C(=O)O [Compound 3],inhibition at 12.5 µM,COL1A1; [10],25 to 50%
same,inhibition at 12.5 µM,TNF-α [1]; [10],1 to 10%
same,inhibition at 12.5 µM,COL3A1; [10],1 to 10%
same,inhibition at 12.5 µM,Smad3; [10],1 to 10%
same,inhibition at 12.5 µM,COL1A2 [2]; [10],1 to 10%
same,inhibition at 12.5 µM,IL-1β; [10],1 to 10%
C[S+]([O-])C[C@H](N)C(=O)O (stereo partly drawn) [Compound 45],inhibition at 25 µM,COL1A1,1 to 10%
same,inhibition at 25 µM,"TNF-α [1]; LX-2, test concentration 25 μM",1 to 10%
same,inhibition at 25 µM,COL3A1,1 to 10%
same,inhibition at 25 µM,α-SMA [3],1 to 10%
same,inhibition at 25 µM,"Smad3; LX-2, test concentration 25 μM",1 to 10%
same,inhibition at 25 µM,COL1A2 [2],1 to 10%
same,inhibition at 25 µM,IL-1β,1 to 10%
N[C@@H](CS(=O)O)C(=O)O [Compound 46],inhibition at 25 µM,COL1A2 [2],1 to 10%
COC(=O)[C@H](Cc1ccccc1)NC(=O)[C@@H](N)CC(=O)O [Compound 48] (HELM PEPTIDE1{D.F.[CO[*:1]]}$$$$V2.0),inhibition at 50 µM,COL1A1,25 to 50%
same,inhibition of the mRNA expression levels of liver fibrosis-related genes (overall),[4],stronger effects
same,inhibitory effect on α-SMA protein as compared to ASP,α-SMA [5],stronger inhibitory effects
same,inhibition at 50 µM,COL3A1,10 to 25%
same,inhibition of the expression of collagen I and collagen III at the mRNA level,[6],could inhibit
same,inhibition at 50 µM,TNF-α [7],1 to 10%
"CC(C)OC(=O)[C@@H](N)CC(=O)O [Compound 50, 1-isopropyl L-aspartic acid ester hydrochloride]",inhibition at 50 µM,COL1A1,25 to 50%
same,inhibition at 50 µM,COL3A1,1 to 10%
same,inhibition of the expression of collagen I and collagen III at the mRNA level,[6],could inhibit
same,inhibitory effect on FN protein expression as compared to ASP,FN,stronger inhibitory effects
"CC(C)OC(=O)OCOC(=O)C[C@H](N)C(=O)O [Compound 52, 4-(((isopropoxycarbonyl)oxy)methyl) L-aspartic acid ester hydrochloride]",inhibition at 50 µM,COL1A1,25 to 50%
same,inhibition of the mRNA expression levels of liver fibrosis-related genes (overall),[4],stronger effects
same,inhibitory effect on α-SMA protein as compared to ASP,α-SMA [5],stronger inhibitory effects
same,inhibition at 50 µM,COL1A2 [8],1 to 10%
same,inhibition at 50 µM,COL3A1,25 to 50%
same,inhibition of the expression of collagen I and collagen III at the mRNA level,[6],could inhibit
same,inhibitory effect on FN protein expression as compared to ASP,FN,stronger inhibitory effects
"N[C@@H](CC(=O)OCOC(=O)C[C@H](N)C(=O)O)C(=O)O [Compound 55, (2S,2'S)-4,4′-(methylenebis (oxy))bis (2-amino-4-oxobutyric acid) hydrochloride]",inhibition at 25 µM,COL1A1,1 to 10%
same,inhibition at 25 µM,COL3A1,1 to 10%
same,inhibition at 25 µM,α-SMA [3],1 to 10%
same,inhibition at 25 µM,COL1A2 [2],1 to 10%
same,inhibition at 25 µM,IL-1β,1 to 10%
"COC(=O)C[C@H](N)C(=O)OCCOC(=O)[C@@H](N)CC(=O)OC [Compound 77a, O′1,O1-(ethan-1,2-diyl)4-dimethyl (2S,2'S)-bis (2-aminosuccinate) hydrochloride]",Up-regulation of NS3TP1,NS3TP1; 200 µM compound,C (C represented that the up-regulation was 1~20%)
same,expression of α-SMA in the cells,α-SMA [9],significantly decreased
same,expression of Collagen I in the cells,collagen I,significantly decreased
"COC(=O)C[C@H](N)C(=O)OCCOC(=O)C[C@H](N)C(=O)OC [Compound 78a, 4-(2-(S)-2-amino-4-methoxy-4-oxobutyryl)ethyl)1-methyl L-aspartic acid ester hydrochloride]",Up-regulation of NS3TP1,NS3TP1; test concentration 12.5 μM,C (C represented that the up-regulation was 1~20%)
same,expression of α-SMA in the cells,α-SMA [9],significantly decreased
same,expression of Collagen I in the cells,collagen I,significantly decreased
